Experiments:
Test in all cases: relative viability (nuclei count vs DMSO), 5 days (fraction); higher = more cells survive
ABC-1 = test system: ABC-1
How it was run: (§1)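 Relative viability divides the nuclei count in treated wells by that in vehicle wells. Lung cancer cell lines were seeded in 1536-well plates, dosed by pin tool the next day, and fixed and stained after 5 days in one step with final 0.05% Triton X-100, 1% formaldehyde and 1 ug/ml Hoechst. Dosing was a single drug or a fixed anchor-drug dose plus five library-drug doses (not always all listed) in √10 steps, and values are medians of duplicate plates imaged at 4×.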

CAL-12T = test system: CAL-12T
How it was run: as §1

COR-L 105 = test system: COR-L 105
How it was run: as §1

ChaGo-K-1 = test system: ChaGo-K-1
How it was run: as §1

EMC-BAC-2 = test system: EMC-BAC-2
How it was run: as §1

EPLC-272H = test system: EPLC-272H
How it was run: as §1

HCC-15 = test system: HCC-15
How it was run: as §1

HCC-78 = test system: HCC-78
How it was run: as §1

HOP-62 = test system: HOP-62
How it was run: as §1

LXF-289 = test system: LXF-289
How it was run: as §1

NCI-H1666 = test system: NCI-H1666
How it was run: as §1

NCI-H1755 = test system: NCI-H1755
How it was run: as §1

NCI-H1915 = test system: NCI-H1915
How it was run: as §1

NCI-H1975 = test system: NCI-H1975
How it was run: as §1

NCI-H1993 = test system: NCI-H1993
How it was run: as §1

NCI-H2023 = test system: NCI-H2023
How it was run: as §1

NCI-H2085 = test system: NCI-H2085
How it was run: as §1

NCI-H2126 = test system: NCI-H2126
How it was run: as §1

NCI-H3122 = test system: NCI-H3122
How it was run: as §1

NCI-H322M = test system: NCI-H322M
How it was run: as §1

NCI-H358 = test system: NCI-H358
How it was run: as §1

NCI-H441 = test system: NCI-H441
How it was run: as §1

NCI-H522 = test system: NCI-H522
How it was run: as §1

UMC-11 = test system: UMC-11
How it was run: as §1

For `CC(C)Oc1cc(Nc2nc(N[C@@H](C)c3ccc(F)cn3)ncc2Cl)n[nH]1` [AZ23] + Cc1cc(Nc2cc(N3CCN(C)CC3)nc(Sc3ccc(NC(=O)C4CC4)cc3)n2)n[nH]1 [Tozasertib] (partner 0.1 µM), which relative viability (ABC-1; first compound 0.01 µM) is on record?
The relative viability was 0.192.

And the relative viability (ABC-1; first compound 0.03162 µM)?
The relative viability was 0.201.

What about the relative viability (ABC-1; first compound 0.3162 µM) of the same molecule?
Its relative viability is 0.195.

And the relative viability (CAL-12T; first compound 0.03162 µM)?
Its relative viability is 0.342.

What about the relative viability (CAL-12T; first compound 0.3162 µM) of the same molecule?
Its relative viability is 0.241.

What about the relative viability (COR-L 105; first compound 0.01 µM) of the same molecule?
Its relative viability is 0.375.

What about the relative viability (COR-L 105; first compound 0.03162 µM) of the same molecule?
The relative viability was 0.447.

What about the relative viability (COR-L 105; first compound 0.3162 µM) of the same molecule?
Its relative viability is 0.365.

What about the relative viability (ChaGo-K-1; first compound 0.01 µM) of the same molecule?
Its relative viability is 0.234.

And the relative viability (ChaGo-K-1; first compound 0.03162 µM)?
The relative viability was 0.234.

And the relative viability (ChaGo-K-1; first compound 0.3162 µM)?
Its relative viability is 0.235.

And the relative viability (EMC-BAC-2; first compound 0.01 µM)?
The relative viability was 0.262.

And the relative viability (EMC-BAC-2; first compound 0.03162 µM)?
Its relative viability is 0.28.

What about the relative viability (EMC-BAC-2; first compound 0.3162 µM) of the same molecule?
Its relative viability is 0.296.

And the relative viability (EPLC-272H; first compound 0.01 µM)?
Its relative viability is 0.384.

And the relative viability (EPLC-272H; first compound 0.03162 µM)?
Its relative viability is 0.263.

What about the relative viability (EPLC-272H; first compound 0.3162 µM) of the same molecule?
Its relative viability is 0.246.

And the relative viability (HCC-15; first compound 0.01 µM)?
Its relative viability is 0.513.

What about the relative viability (HCC-15; first compound 0.03162 µM) of the same molecule?
Its relative viability is 0.498.

What about the relative viability (HCC-15; first compound 0.3162 µM) of the same molecule?
The relative viability was 0.631.

And the relative viability (HCC-78; first compound 0.01 µM)?
The relative viability was 0.344.

What about the relative viability (HCC-78; first compound 0.03162 µM) of the same molecule?
The relative viability was 0.482.

What about the relative viability (HCC-78; first compound 0.3162 µM) of the same molecule?
The relative viability was 0.334.

What about the relative viability (HOP-62; first compound 0.01 µM) of the same molecule?
The relative viability was 0.352.

What about the relative viability (HOP-62; first compound 0.03162 µM) of the same molecule?
The relative viability was 0.424.

And the relative viability (HOP-62; first compound 0.3162 µM)?
The relative viability was 0.37.

And the relative viability (LXF-289; first compound 0.01 µM)?
The relative viability was 0.222.

And the relative viability (LXF-289; first compound 0.03162 µM)?
Its relative viability is 0.205.

What about the relative viability (LXF-289; first compound 0.3162 µM) of the same molecule?
The relative viability was 0.204.

And the relative viability (NCI-H1666; first compound 0.01 µM)?
Its relative viability is 0.558.

And the relative viability (NCI-H1666; first compound 0.03162 µM)?
The relative viability was 0.583.

And the relative viability (NCI-H1666; first compound 0.3162 µM)?
Its relative viability is 0.545.

What about the relative viability (NCI-H1755; first compound 0.01 µM) of the same molecule?
Its relative viability is 0.556.

And the relative viability (NCI-H1755; first compound 0.03162 µM)?
The relative viability was 0.613.

And the relative viability (NCI-H1755; first compound 0.3162 µM)?
The relative viability was 0.664.

And the relative viability (NCI-H1915; first compound 0.01 µM)?
The relative viability was 0.479.

And the relative viability (NCI-H1915; first compound 0.03162 µM)?
The relative viability was 0.507.

What about the relative viability (NCI-H1915; first compound 0.3162 µM) of the same molecule?
The relative viability was 0.514.

What about the relative viability (NCI-H1975; first compound 0.01 µM) of the same molecule?
The relative viability was 0.836.

And the relative viability (NCI-H1975; first compound 0.03162 µM)?
Its relative viability is 0.977.

And the relative viability (NCI-H1975; first compound 0.3162 µM)?
The relative viability was 0.744.

And the relative viability (NCI-H1993; first compound 0.01 µM)?
The relative viability was 0.593.

What about the relative viability (NCI-H1993; first compound 0.03162 µM) of the same molecule?
The relative viability was 0.604.

What about the relative viability (NCI-H1993; first compound 0.3162 µM) of the same molecule?
The relative viability was 0.548.

And the relative viability (NCI-H2023; first compound 0.03162 µM)?
The relative viability was 0.457.

And the relative viability (NCI-H2023; first compound 0.3162 µM)?
Its relative viability is 0.46.

What about the relative viability (NCI-H2085; first compound 0.01 µM) of the same molecule?
The relative viability was 0.799.

And the relative viability (NCI-H2085; first compound 0.03162 µM)?
Its relative viability is 0.855.

What about the relative viability (NCI-H2085; first compound 0.3162 µM) of the same molecule?
The relative viability was 0.803.

And the relative viability (NCI-H2126; first compound 0.01 µM)?
The relative viability was 0.923.

And the relative viability (NCI-H2126; first compound 0.03162 µM)?
The relative viability was 0.939.

What about the relative viability (NCI-H2126; first compound 0.3162 µM) of the same molecule?
The relative viability was 0.892.

And the relative viability (NCI-H3122; first compound 0.01 µM)?
Its relative viability is 0.504.

What about the relative viability (NCI-H3122; first compound 0.03162 µM) of the same molecule?
The relative viability was 0.456.

What about the relative viability (NCI-H3122; first compound 0.3162 µM) of the same molecule?
Its relative viability is 0.52.

What about the relative viability (NCI-H322M; first compound 0.03162 µM) of the same molecule?
The relative viability was 0.501.

And the relative viability (NCI-H322M; first compound 0.3162 µM)?
Its relative viability is 0.434.

What about the relative viability (NCI-H358; first compound 0.01 µM) of the same molecule?
Its relative viability is 0.101.

And the relative viability (NCI-H358; first compound 0.03162 µM)?
The relative viability was 0.114.

And the relative viability (NCI-H358; first compound 0.3162 µM)?
Its relative viability is 0.107.

What about the relative viability (NCI-H441; first compound 0.01 µM) of the same molecule?
Its relative viability is 0.813.

What about the relative viability (NCI-H441; first compound 0.03162 µM) of the same molecule?
Its relative viability is 0.782.

What about the relative viability (NCI-H441; first compound 0.3162 µM) of the same molecule?
Its relative viability is 0.609.

What about the relative viability (NCI-H522; first compound 0.01 µM) of the same molecule?
The relative viability was 0.519.

And the relative viability (NCI-H522; first compound 0.03162 µM)?
The relative viability was 0.567.

And the relative viability (NCI-H522; first compound 0.3162 µM)?
Its relative viability is 0.65.

What about the relative viability (UMC-11; first compound 0.01 µM) of the same molecule?
Its relative viability is 0.181.

And the relative viability (UMC-11; first compound 0.03162 µM)?
Its relative viability is 0.197.

What about the relative viability (UMC-11; first compound 0.3162 µM) of the same molecule?
Its relative viability is 0.19.

Reference: the supplement of paper PMC10307832
